According to US12378220B2, “WNT signaling pathway inhibitors for treatments of disease” (University of Maryland, Baltimore, priority 2016, dated 2025):
“Also recorded” adds a separate entry of the source.

Experiments:
[1] = tested on: Wnt/β-catenin pathway; assay: dual-luciferase TCF/LEF reporter assay, LiCl-activated, HEK293 cells; type: cell-based; settings: Homo sapiens
[2] = tested on: Madin-Darby Canine Kidney (MDCK) epithelial cell monolayer; assay: permeability across MDCK monolayer on transwell plates; type: in vitro ADME; settings: data not shown
[3] = tested on: A549 cells; assay: quantitative real-time RT-PCR of Wnt regulated genes; type: cell-based, human
Procedure: (§1) Quantitative Real-time RT-PCR. The total RNA extracted from the cells using TRIzol (Invitrogen) and 2 μg was reverse transcribed in a 20-μl volume system (QuantiTect Reverse Transcription Kit (Qiagen)) for quantitative PCR assays. SYBR green quantitative real-time PCR analyses were carried out using gene-specific primers (working concentration at 250 nM) in StepOnePlus real time PCR system (Applied Biosystems, AB), using the housekeeping gene GAPDH as an internal control. The PCR running procedure was as follows: 4 min denaturing at 95° C., followed by 40 cycles of 30 seconds of denaturing at 95° C. and then annealing and extension at 60° C. for 1 min.

[4] = tested on: SW620 cells; assay: as above; type: cell-based, human
Procedure: as §1

[5] = tested on: WiDr cells; assay: as above; type: cell-based, human
Procedure: as §1

[6] = tested on: SW480 cells; assay: Western blot of Wnt signaling proteins; type: cell-based, human; settings: 48 h
Procedure: Using a Wester Blot, compounds YW2013 and YW2123 were tested in SW480 cells to determine their effect on the expression of Axin-2, β-catenin, and c-myc.
Western Blot: 1×10^6 Cells of SW480 cells were seeded into 6-well plates overnight. A concentration of 3, 10, 30 μM/L YW2013 and 3, 10 μM/L YW2123 was added after 24 h, medium with 1‰ DMSO was used as the control. Cells were exposed to treatment for 48 h. The dishes was washed twice using precold PBS and 100 μL of RIPA then added. After incubating plates on ice for 15 min, cells were scraped carefully and centrifuged for 10 minutes at 14,000 g at 4° C. immediately. The remaining supernatant and lysates were maintained at −70° C. A Bio-Rad protein assay kit (500-0002) was used to quantitate the cell lysates. The concentration was adjusted to 2 mg/ml. A ratio of 1:1 2× loading buffer was added and the samples were denatured by boiling. Protein samples were separated on 4-15% SDS-polyacrylamide gel (SDS-PAGE) and transferred onto the PVDF membranes (Millipore). Immune complexes were formed by incubation of the proteins with primary antibody β-catenin, c-myc, Axin-2, and GAPDH at 4° C. overnight. A second antibody with horseradish peroxidase (HRP, sigma) conjugated was used then. Blots were developed by enhanced chemiluminescence (Thermo).

[7] = tested on: SW480 cells; assay: colony formation assay; type: cell-based, human; settings: 0-30 μM, 2 weeks
Procedure: (§2) Colony Formation Assay. HT-29 and SW620, SW480 cells were seeded into 6-well dishes with the medium containing 0, 1, 3, 10, 30 μM/L of YW2013 or YW2044, 500 cells/well. After 2 weeks, cells were fixed with 4% paraformaldehyde solution and stained with 0.5% crystal violet for 1 h at room temperature. The images of colonies were captured by microscopy.

[8] = tested on: SW620 cells; assay: colony formation assay; type: cell-based, human
Procedure: as §2

[9] = tested on: SW620 cells; assay: cell cycle analysis by flow cytometry; type: cell-based, human; settings: unsynchronized and synchronized, 24 h
Procedure: SW620 cells were treated with YW2013 at various concentrations (0, 1, 10 μM) to determine the effect of YW2013 on the SW620 cell cycle in an unsynchronized assay (FIG. 27A) and an assay where cells were treated with FBS free medium for 24 hours up to synchronization before adding YW2013 (FIG. 27B).
Cell Cycle Analysis. SW620 cells were plated in 6-well plates for 24 h, and the medium was replaced with medium containing 0, 1, 10, μM/L of YW2013. After incubation for 24 h, the cells were harvested by trypsinization and then fixed with 70% 4° C. ethanol. Intracellular DNA was stained with 50 ng/ml propidium iodide in the dark for 30 min at room temperature, and the percentages of different phase of cells were determined by flow cytometry (BD FACScan; BD Biosciences).

[10] = tested on: SW620 cells; assay: Annexin-V/AAD-7 double-staining apoptosis assay; type: cell-based, human; settings: SW620 cells, 0, 3, 10, 30 μM, 48 h
Procedure: Annexin-V/AAD-7 Double-Staining Assay. SW620 cells were treated with 0, 3, 10, 30 μM/L of YW2013 for 48 h. Then they were harvested and washed with PBS. Apoptotic cells were determined with an FITC Annexin V Apoptosis Detection Kit according to the manufacturer's protocol. Briefly, the cells were washed and subsequently incubated for 15 min at room temperature in the dark in 100 μL of 1× binding buffer containing 2 μL of Annexin V-FITC and 2 μL of AAD-7. After 30 min, apoptosis was analyzed by BD FACSCanto II Flow Cytometer.

[11] = tested on: WiDr, SW620, HT29, HEK_LTV, and T84 cell lines; assay: cell proliferation and growth inhibition assay (CCK-8), cell line panel; type: cell-based, human; settings: 72 h, FIG. 12
Procedure: Cell Proliferation and Growth Inhibition Assay. HT-29, HCT-116, WiDr, SW620, SW480, T84, A549, MCF-7, HepG2, Hela cells were cultured in respective growth medium. Cells of log phase were used. 3000-5000 cells/well were seeded in 96-well plates with a 100 μL volume. After 24 h, Compounds were dissolved to […] with DMSO, and a 3-fold serial dilution of the compounds from 5×10^−5 M to […] was performed. 2 μL of compound solution was added to 998 μL of growth medium, the mixture was vortexed sufficiently. 100 μL of the mixture was correspondingly added to the 96-well plate. 2 μL DMSO instead of compound solution was used as the 0% inhibitor control. After coincubation for 72 h, the old medium was removed and 100 μL of 10% CCK-8 in culture medium was added. 2 h later the plates were read in the microplate reader (Bio-Rad) at 450 nm. The data was calculated using Graph Pad Prism version 5.0. The IC50 were fitted using a nonlinear regression model with a sigmoidal dose response.

[12] = tested on: SW620 xenograft; assay: SW620 xenograft tumor growth; type: in vivo, nude mice; settings: i.p. 10 mg/kg or 50 mg/kg each day, 32 day study, vs vehicle
Procedure: FIG. 37A illustrates tumor growth measured during the study every other day. FIG. 37B illustrates tumor weight that was measured after mouse euthanization. FIG. 37C illustrates the change in mouse body weight during the study.
Six-week old nude mice were injected with 2×10^6 SW620 cells subcutaneously. 10 days after inoculation, mice received an i.p. injection of YW2065 at 10 mg/kg or 50 mg/kg or vehicle each day. The tumor growth (FIG. 37A) was measured every other day. The mice were euthanized at day 32, and tumors were weighed (FIG. 37B). Body weight change was monitored during the study (FIG. 37C).

[13] = tested on: SW480 cells; assay: mitochondrial function and morphology; type: cell-based, human
Procedure: FIG. 38B illustrates ATP production estimated from the OCR measurement. […] DHE fluorescence intensity was measured by using ImageJ. ˜300 cells were counted in each treatment.
Mitochondrial function and morphology was determined in SW480 cells treated with YW2065.

SMILES: Cc1ccccc1-n1ncc(C(=O)Nc2ccc3ccccc3n2)c1C [YW2013, 5-Methyl-N-(quinolin-2-yl)-1-(o-tolyl)-1H-pyrazole-4-carboxamide]
- activity at 1 µM ([1]; HEK293, 24 h, At 1 μM concentration, remaining Wnt signaling activity, read-out: RLU % (Relative Light Units in reporter gene assays)): 1.9%
- IC50 ([1]; HEK293, Table 3, values in nM, read-out: IC50): 9.6 nM
- apical-to-basolateral and basolateral-to-apical flux [2]: significant apical-to-basolateral and basolateral-to-apical flux
- mRNA expression of Wnt regulated genes (Axin-2 and/or cyclin D1) [3]: reduced mRNA expression
- mRNA expression of Wnt regulated genes (Axin-2 and/or cyclin D1) [4]: reduced mRNA expression
- mRNA expression of Wnt regulated genes (Axin-2 and/or cyclin D1) [5]: reduced mRNA expression
- expression of Axin-2, β-catenin, and c-myc [6]: visibly reduced
- colony formation [7]: dose dependent reduction
- colony formation ([8]; 0-30 μM, 2 weeks): dose dependent reduction
- reduction in colony formation in combination ([8]; combined with Gefitinib): markedly increased when combined with Gefitinib
- effect on cell cycle [9]: cell cycle arrest in the G1 and S phases
- apoptosis [10]: induced apoptosis in SW620 cells in a dose dependent manner
- growth inhibitory activity [11]: micromolar growth inhibitory activity

SMILES: Cc1c(C(=O)Nc2ccc3ccccc3n2)cnn1-c1ccccc1Br [YW2065, 1-(2-Bromophenyl)-5-methyl-N-(quinolin-2-yl)-1H-pyrazole-4-carboxamide]
- tumor growth [12]: markedly inhibited tumor growth; also recorded: inhibited SW620 xenograft growth
- ATP production (estimated from OCR) [13]: inhibited ATP production as a function of dosage
- ROS generation (DHE staining) [13]: increased ROS generation
- oxygen consumption rate (OCR) [13]: reduced oxygen consumption rate
- mitochondrial morphology ([13]; 10 μM, 4 hours): caused short and punctuated mitochondria
